Test results: PMC2783032, “Affinity maturation generates greatly improved xyloglucan-specific carbohydrate binding modules” (BMC Biotechnology, 2009)

Tests used:
Assay in all cases: Isothermal titration calorimetry at 25 °C in 20 mM HEPES, pH 8.0, 2 mM CaCl2, 50 uM protein in the cell titrated with oligosaccharide, single-site non-linear regression.
Type in all cases: binding
XG-34 = target: T1, XG-34 (Rhodothermus marinus, UniProt Q7WTN6, E282H/E322D/F286L/F320H/Q321D/W279Y/Y359F); conditions: read-out: KA (10^3 M^-1)
T1 construct: CBM4-2 domain scaffold, hexahistidine tag (pET22b, E. coli BL21 (DE3))
Experimental: (§1) Isothermal titration calorimetry (ITC) measurements were performed at 25°C following standard procedures using a Microcal Omega titration calorimeter (Northampton, MA, USA). XXXG and XLLG (Figure 1) were prepared as previously described. Prior to analysis, the CBM were extensively dialyzed against 20 mM HEPES, pH 8.0 containing 2 mM CaCl2. The same buffer was used to dissolve tamarind seed xyloglucan, XXXG, XLLG and galactose to minimize heats of dilution. 50 μM protein samples were stirred at 300 rpm in a 1.4331 ml reaction cell. Ligands were injected as a single 1 μl aliquot followed by 27 successive 10 μl aliquots at 300 s intervals (2 mM, 7.5 mM or 10 mM XXXG; 1 mM or 5 mM XLLG; 2.5% or 5% w/v xyloglucan; 10 mM galactose). Integrated heat effects were analyzed by non-linear regression using a single-site binding model.

XG-34/1-X = system: T2, XG-34/1-X
T2 construct: CBM4-2 domain scaffold, hexahistidine tag (pET22b, E. coli BL21 (DE3))
Experimental: as §1

XG-34/2-VI = system: T3, XG-34/2-VI
T3 construct: CBM4-2 domain scaffold, hexahistidine tag (pET22b, E. coli BL21 (DE3))
Experimental: as §1

Compound	Kd (XG-34)	KA (10^3 M^-1) (XG-34/1-X)	KA (10^3 M^-1) (XG-34/2-VI)
OC[C@H]1O[C@@H](O[C@H]2[C@@H](OC[C@H]3O[C@@H](O[C@H]4[C@H](O)[C@@H](O)[C@H](O[C@H]5[C@H](O)[C@@H](O)C(O)O[C@@H]5CO)O[C@@H]4CO[C@H]4OC[C@@H](O)[C@H](O)[C@H]4O[C@@H]4O[C@H](CO)[C@H](O)[C@H](O)[C@H]4O)[C@H](O)[C@@H](O)[C@@H]3O[C@@H]3O[C@H](CO[C@H]4OC[C@@H](O)[C@H](O)[C@H]4O)[C@@H](O)[C@H](O)[C@H]3O)OC[C@@H](O)[C@@H]2O)[C@H](O)[C@@H](O)[C@H]1O (stereo partly shown) [XLLG, xyloglucan oligosaccharide XLLG (galactose-containing nonasaccharide, Gal2Xyl3Glc4)]	~1000 µM	–	–
OC[C@H]1OC(O)[C@H](O)[C@@H](O)[C@@H]1O[C@@H]1O[C@H](CO[C@H]2OC[C@@H](O)[C@H](O)[C@H]2O)[C@@H](O[C@@H]2O[C@H](CO[C@H]3OC[C@@H](O)[C@H](O)[C@H]3O)[C@@H](O[C@@H]3O[C@H](CO[C@H]4OC[C@@H](O)[C@H](O)[C@H]4O)[C@@H](O)[C@H](O)[C@H]3O)[C@H](O)[C@H]2O)[C@H](O)[C@H]1O (stereo partly shown) [XXXG, xyloglucan oligosaccharide XXXG (non-galactosylated heptasaccharide, Xyl3Glc4)]	~1000 µM	~ ≈ 1 M-1	~ ≈ 1 M-1
